# From PubChem BioAssay (NCI)
#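 A five-concentration, 48-hour dose response in 96-well plates underlies each endpoint, interpolated linearly between surrounding concentrations. At the GI50, growth is halved. At the TGI there is no net growth.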
# Tests used:
# Test in all cases: NCI anticancer screen, dose series, 48 h
# OVCAR-8 ovarian = tested on: OVCAR-8 ovarian
# EKVX NSCLC = tested on: EKVX NSCLC
# HT29 colon = tested on: HT29 colon
# M14 melanoma = tested on: M14 melanoma
# MALME-3M melanoma = tested on: MALME-3M melanoma
# CAKI-1 renal = tested on: CAKI-1 renal
# SF-539 CNS = tested on: SF-539 CNS
# LOX IMVI melanoma = tested on: LOX IMVI melanoma
# MCF7 breast = tested on: MCF7 breast
# U251 CNS = tested on: U251 CNS
# A498 renal = tested on: A498 renal
# HCC-2998 colon = tested on: HCC-2998 colon
# UACC-62 melanoma = tested on: UACC-62 melanoma
# SR leukemia = tested on: SR leukemia
# NCI-H460 lung = tested on: NCI-H460 lung
# HOP-92 NSCLC = tested on: HOP-92 NSCLC
# SK-MEL-28 melanoma = tested on: SK-MEL-28 melanoma
# MDA-MB-435 = tested on: MDA-MB-435
# HL-60(TB) leukemia = tested on: HL-60(TB) leukemia
# RPMI-8226 leukemia = tested on: RPMI-8226 leukemia
# NCI/ADR-RES ovarian = tested on: NCI/ADR-RES ovarian
# KM12 colon = tested on: KM12 colon
# HOP-62 NSCLC = tested on: HOP-62 NSCLC
# NCI-H522 lung = tested on: NCI-H522 lung
# NCI-H23 lung = tested on: NCI-H23 lung
# BT-549 breast = tested on: BT-549 breast
# MOLT-4 leukemia = tested on: MOLT-4 leukemia
# SF-268 CNS = tested on: SF-268 CNS
# SN12C renal = tested on: SN12C renal
# SK-MEL-2 melanoma = tested on: SK-MEL-2 melanoma
# SW-620 colon = tested on: SW-620 colon
# SNB-19 CNS = tested on: SNB-19 CNS
# TK-10 renal = tested on: TK-10 renal
# OVCAR-3 ovarian = tested on: OVCAR-3 ovarian
# IGROV1 ovarian = tested on: IGROV1 ovarian
# 786-0 renal = tested on: 786-0 renal
# HCT-116 colon = tested on: HCT-116 colon
# CCRF-CEM leukemia = tested on: CCRF-CEM leukemia
# SK-OV-3 ovarian = tested on: SK-OV-3 ovarian
# NCI-H226 lung = tested on: NCI-H226 lung
# HCT-15 colon = tested on: HCT-15 colon
# RXF 393 renal = tested on: RXF 393 renal
# T-47D breast = tested on: T-47D breast
# OVCAR-4 ovarian = tested on: OVCAR-4 ovarian
# K-562 leukemia = tested on: K-562 leukemia
# HS 578T breast = tested on: HS 578T breast
# DU-145 prostate = tested on: DU-145 prostate
# SK-MEL-5 melanoma = tested on: SK-MEL-5 melanoma
# COLO 205 colon = tested on: COLO 205 colon
# ACHN renal = tested on: ACHN renal
# A549 NSCLC = tested on: A549 NSCLC
# UACC-257 melanoma = tested on: UACC-257 melanoma
# SF-295 CNS = tested on: SF-295 CNS
# UO-31 renal = tested on: UO-31 renal
# SNB-75 CNS = tested on: SNB-75 CNS
# OVCAR-5 ovarian = tested on: OVCAR-5 ovarian
# PC-3 prostate = tested on: PC-3 prostate
# MDA-MB-231 breast = tested on: MDA-MB-231 breast
smiles,measurement,setting,value
Cn1cc(-c2nc(N)nnc2-c2c[nH]c3ccccc23)c2cc(Br)ccc21,GI50,OVCAR-8 ovarian,3.62 µM
same,TGI,OVCAR-8 ovarian,69.5 µM
same,GI50,EKVX NSCLC,2.62 µM
same,TGI,EKVX NSCLC,23.4 µM
same,GI50,HT29 colon,0.483 µM
same,TGI,HT29 colon,5.38 µM
same,GI50,M14 melanoma,0.768 µM
same,TGI,M14 melanoma,8.45 µM
same,GI50,MALME-3M melanoma,6.12 µM
same,TGI,MALME-3M melanoma,32.2 µM
same,GI50,CAKI-1 renal,0.536 µM
same,TGI,CAKI-1 renal,13.6 µM
same,GI50,SF-539 CNS,2.17 µM
same,TGI,SF-539 CNS,6.88 µM
same,GI50,LOX IMVI melanoma,1.37 µM
same,TGI,LOX IMVI melanoma,27.4 µM
same,GI50,MCF7 breast,0.48 µM
same,TGI,MCF7 breast,16.4 µM
same,GI50,U251 CNS,2.26 µM
same,TGI,U251 CNS,15.2 µM
same,GI50,A498 renal,1.19 µM
same,TGI,A498 renal,5.7 µM
same,GI50,HCC-2998 colon,2.7 µM
same,TGI,HCC-2998 colon,13.7 µM
same,GI50,UACC-62 melanoma,0.988 µM
same,TGI,UACC-62 melanoma,18.9 µM
same,GI50,SR leukemia,0.312 µM
same,TGI,SR leukemia,2.43 µM
same,GI50,NCI-H460 lung,0.551 µM
same,TGI,NCI-H460 lung,12.2 µM
same,GI50,HOP-92 NSCLC,2.62 µM
same,TGI,HOP-92 NSCLC,22.4 µM
same,GI50,SK-MEL-28 melanoma,6.98 µM
same,TGI,SK-MEL-28 melanoma,22.5 µM
same,GI50,MDA-MB-435,0.312 µM
same,TGI,MDA-MB-435,11.8 µM
same,GI50,HL-60(TB) leukemia,0.451 µM
same,TGI,HL-60(TB) leukemia,7.69 µM
same,GI50,RPMI-8226 leukemia,2.35 µM
same,TGI,RPMI-8226 leukemia,46.2 µM
same,GI50,NCI/ADR-RES ovarian,1.67 µM
same,TGI,NCI/ADR-RES ovarian,18.6 µM
same,GI50,KM12 colon,0.591 µM
same,TGI,KM12 colon,11.9 µM
same,GI50,HOP-62 NSCLC,2.52 µM
same,TGI,HOP-62 NSCLC,19.9 µM
same,GI50,NCI-H522 lung,0.646 µM
same,TGI,NCI-H522 lung,8.03 µM
same,GI50,NCI-H23 lung,2.21 µM
same,TGI,NCI-H23 lung,17.2 µM
same,GI50,BT-549 breast,1.53 µM
same,TGI,BT-549 breast,14.5 µM
same,GI50,MOLT-4 leukemia,0.684 µM
same,TGI,MOLT-4 leukemia,4.05 µM
same,GI50,SF-268 CNS,2.51 µM
same,TGI,SF-268 CNS,18.6 µM
same,GI50,SN12C renal,5.17 µM
same,TGI,SN12C renal,47.9 µM
same,GI50,SK-MEL-2 melanoma,1.9 µM
same,TGI,SK-MEL-2 melanoma,13.6 µM
same,GI50,SW-620 colon,0.67 µM
same,TGI,SW-620 colon,15.9 µM
same,GI50,SNB-19 CNS,2.05 µM
same,TGI,SNB-19 CNS,22.7 µM
same,GI50,TK-10 renal,6.01 µM
same,TGI,TK-10 renal,34.3 µM
same,GI50,OVCAR-3 ovarian,0.507 µM
same,TGI,OVCAR-3 ovarian,4.94 µM
same,GI50,IGROV1 ovarian,0.9 µM
same,TGI,IGROV1 ovarian,24.2 µM
same,GI50,786-0 renal,2.65 µM
same,TGI,786-0 renal,17.6 µM
same,GI50,HCT-116 colon,0.518 µM
same,TGI,HCT-116 colon,11.9 µM
same,GI50,CCRF-CEM leukemia,2.21 µM
same,TGI,CCRF-CEM leukemia,13.5 µM
same,GI50,SK-OV-3 ovarian,3.02 µM
same,TGI,SK-OV-3 ovarian,18.7 µM
same,GI50,NCI-H226 lung,2.39 µM
same,TGI,NCI-H226 lung,15.9 µM
same,GI50,HCT-15 colon,0.552 µM
same,TGI,HCT-15 colon,16.4 µM
same,GI50,RXF 393 renal,1.17 µM
same,TGI,RXF 393 renal,4.4 µM
same,GI50,T-47D breast,0.783 µM
same,TGI,T-47D breast,24.4 µM
same,GI50,OVCAR-4 ovarian,3.72 µM
same,TGI,OVCAR-4 ovarian,21.8 µM
same,GI50,K-562 leukemia,0.393 µM
same,TGI,K-562 leukemia,13.2 µM
same,GI50,HS 578T breast,1.89 µM
same,TGI,HS 578T breast,9.3 µM
same,GI50,DU-145 prostate,3.26 µM
same,TGI,DU-145 prostate,14.8 µM
same,GI50,SK-MEL-5 melanoma,1.58 µM
same,TGI,SK-MEL-5 melanoma,9.96 µM
same,GI50,COLO 205 colon,0.877 µM
same,TGI,COLO 205 colon,7.13 µM
same,GI50,ACHN renal,3.57 µM
same,TGI,ACHN renal,20 µM
same,GI50,A549 NSCLC,1.55 µM
same,TGI,A549 NSCLC,39.7 µM
same,GI50,UACC-257 melanoma,7.26 µM
same,TGI,UACC-257 melanoma,22.4 µM
same,GI50,SF-295 CNS,0.922 µM
same,TGI,SF-295 CNS,11.4 µM
same,GI50,UO-31 renal,1.99 µM
same,TGI,UO-31 renal,20.8 µM
same,GI50,SNB-75 CNS,0.46 µM
same,TGI,SNB-75 CNS,4.54 µM
same,GI50,OVCAR-5 ovarian,5.9 µM
same,TGI,OVCAR-5 ovarian,25.5 µM
same,GI50,PC-3 prostate,2.12 µM
same,TGI,PC-3 prostate,64 µM
same,GI50,MDA-MB-231 breast,4.49 µM
same,TGI,MDA-MB-231 breast,66.1 µM
